Read-outs that look alike come from different tables or passages of the source. Each block holds one compound with its values, some of them ahead of it.
Legend:
[1] = Hydrolysis/stability of POMs in buffer by NMR; details: for Hydrolysis/stability pH 7.5: 10 mM Hepes or Tris, pH 7.4; for Hydrolysis/stability pH 7.5 / Hydrolysis/stability pH 5.5: 107 mM NaCl, NMR, long-term (24 h and longer); for Stability at pH 7.5 by NMR (in words): Hepes or Tris-HCl pH 7.5, 27Al, 31P or 183W NMR, fresh and aged 1-3 days; for Hydrolysis/stability pH 5.5: 10 mM Mes
Procedure: First, their long‐term (24 h and longer) fate in aqueous solution (slightly acidic and neutral) was investigated by applying the active NMR nuclei in their composition (Table S9 and Figures S24–S37, see the Supporting Information for details).
NMR-spectroscopic characterization of identity and stability
NMR spectroscopy for all POMs tested was performed under experimental conditions.

[2] = CF transport assay in EYPC⊃CF vesicles (carrier activity); format: biochemical; set-up: key to Carrier activity: ‐ – ‐: No detectable activity at pH 5.5 and 7.4; details: for EC50: 5% error (SD); for Carrier activity: EYPC vesicles, pH 5.5 and 7.4, cargos heptaArg, protamine, polyArg ([AlMo6]: heptaArg and protamine only); for Transport activity (in words): EYPC⊃CF vesicles, neutral pH, carrier then cargo
Excerpt: The capability of POMs to act as membrane carriers was explored first in large unilamellar vesicles (LUVs) loaded with carboxyfluorescein (CF).^[ [54], [55] ^] We selected […] representative cationic peptides, heptaarginine (heptaArg), heptalysine (heptaLys), protamine, and polyarginine (polyArg), as test cargos. Inside the LUVs, the CF dye was encapsulated at self‐quenching concentrations. With a suitable carrier, heptaArg can be taken up into the vesicles, bind with entrapped CF, and shuttle back to the exterior, diluting the previously quenched CF, and thereby restoring its fluorescence (Figure 1c). In the time‐resolved fluorescence experiments (Figure 2a), to test whether a particular POM acts as molecular carrier, the CF emission was continuously monitored during the addition of the inorganic carrier (t = 60 s) and after injection of the impermeable selected cargo (t = 120 s). Toward the end of the experiment (t = 600 s), the surfactant Triton X‐100 was added to release all the entrapped CF and allow normalization of the intensity data.
A thin lipid film was prepared by evaporating a lipid solution of EYPC (egg yolk phosphatidylcholine, 25 mg) in CHCl3 (1 mL) with a stream of nitrogen and then dried in vacuo overnight. The dry film was rehydrated with 1 mL buffer (50 mM CF, 10 mM Hepes, pH 7.4 or 50 mM CF, 10 mM Tris, pH 7.4) for 30 min at room temperature, subjected to freeze–thaw cycles (7 times) and extrusions (15 times) through a polycarbonate membrane (pore size 100 nm). Extravesicular components were removed by size exclusion chromatography (NAP‐25 column Sephadex G‐25 DNA grade) with 10 mM Hepes, 107 mM NaCl, pH 7.4, or 10 mM Hepes, 107 mM NaCl, pH 7.4. Phospholipid concentration was calculated by the Stewart assay.^[ [81] ^]
Acidic vesicles were prepared analogously but the rehydration and elution buffer were 50 mM CF, 10 mM Mes, pH 5.5 and 10 mM Mes, 107 mM NaCl, pH 5.5. respectively.
Vesicles stock solutions (5–10 µL) were diluted with the corresponding buffer in a disposable plastic cuvette and gently stirred (total volume 2000 µL, final lipid concentration 13 µM). Carboxyfluorescein fluorescence was monitored at λ em = 517 nm (λ ex = 492 nm) as a function of time after addition of POMs at 60 s, analyte at 120 s and Triton X‐100 (24 µL 1.2% wt/vol) at 600 s to lyse the vesicles, for calibration. Fluorescence intensities were normalized to fractional emission as (1) It=It−I0/I∞−I0 where I 0 = I t before POM addition and […] after lysis. For Hill analysis, I t before lysis was defined as transport activity, Y, and plotted against POM concentration, c, and fitted to the Hill Equation (2), to afford the activity in absence of POM, Y 0, the maximal activity, Y max, the concentration needed to achieve 50% of maximal activity, EC 50, and the Hill coefficient, n (2) Y=Y0+Ymax−Y0/1+EC50/c^n
In the transport measurements, where different carriers (POMs) are tested with the same cargo, the activator efficiency (E) is determined by their capacity to transport the impermeable cargo to the intravesicular region and is characterized by Y max, its maximal activity, and EC 50, the effective activator concentration. An ideal carrier reaches high Y max at low EC 50. To count both factors, the activator efficiency is defined as (3) E=YmaxpEC50/f were pEC 50 is the negative logarithm of the EC 50, and f a scaling factor, which was set to 20.6 to calibrate the highest (previously known) activation efficiency, E, as 10.^[ [55] ^]

[3] = test system: methicillin-resistant Staphylococcus aureus (SR3605, ATCC43300); details: in combination with β-Lactamase, Mueller-Hinton broth, pH 7.4, 34 °C, cited from earlier work
Excerpt: page 4: 2. Literature survey Table S1. Survey of experimentally proven membrane penetration of POMs according to a search in Scopus (“polyoxometalate” and “membrane penetration”) up to the submission date of the manuscript.

[4] = Membrane disruption of liposomes by POM alone (CF fluorescence, DLS); format: biochemical; details: higher than 100 µM POM, 10 mM Tris, 107 mM NaCl, pH 7.4
Procedure: It should be noted that the addition of POMs alone (without cargo) retained the stability of the liposomes in the studied concentration range (up to 100 µM), that is, neither an increase in CF fluorescence nor changes in size distribution as obtained by dynamic light scattering experiments (DLS, see Figure S4, Supporting Information) were observed, which would have signaled membrane rupture. These negative controls allowed us to proceed to the carrier experiments, with added cargo.
DLS experiments of the vesicles were carried out on a Malvern Instruments DTS Nano 2000 Zeta‐Sizer. A POM concentration of 100 µM was chosen as default, since this is the highest concentration at which membrane transport was evaluated. The cargo concentration was set to be same as in the transport experiments, namely 10 µM for heptaarginine, 1 µM for protamine, and 0.1 µM for polyarginine. Note that the POMs themselves, with a size of ≈1 nm, fall below the detection limit (>10 nm) of the DLS instrument.
Figure S3. Transport activity, Y, for polyarginine (0.1 µM) in EYPC[…]CF liposomes as a function of the concentration of the different evaluated POMs. Solid lines correspond to the resulting fit with the Hill equation. Blue squares are data obtained at neutral pH, and red stars data obtained at acidic pH.
Table S4. Membrane transport parametersa) of active POMs at neutralb) and acidicc) pH.
HeptaArgd) Protaminee) PolyArgf) carrier pH Hydrolysis/Stability
Ymax [%]g) EC50h) [µM] E i) Ymax [%] EC50 [µM] E Ymax [%] EC50 [µM] E […]
Figure S5. Transport kinetics (left pannels), dose response curves (middle pannels) for cargo transport, and size distribution (by DLS, right pannels) for [PW12]3‒ (top) and [SiW12]4‒ (bottom), measured with EYPC[…]CF liposomes at pH 7.4, but preserving the POM solution at pH 1.2 before addition. As shown in panel a, the addition of [PW12]3‒ alone gave a fluorescence increase, pointing to membrane disruption, which was confirmed by DLS (panel c). […]

CHO‐K1 cells = assay: FITC-Arg8 uptake in live cells, confocal imaging; format: cell-based, Chinese hamster; details: 30 min, 37 °C; for FITC-Arg8 uptake promoted by carrier: carrier 5 µM, 5 min, then FITC-Arg8 5 µM, four biological replicates
Procedure: CHO‐K1 cells were plated into µ‐Slide 8‐well plates (ibidi) at a density of ≈1 × 10^5 cells per well (per 1 mL) and incubated for 24 h in Ham's F‐12 medium containing 10% v/v fetal bovine serum and 1.0% penicillin streptomycin at 37 °C in a 5% CO2 atmosphere. The cells were washed twice with Hank's buffer, incubated for 5 min at 37 °C in Ham's F‐12 medium without phenol red with carrier (5 µM), and subsequently in Ham's F‐12 medium without phenol red with 5 µM FITC‐Arg8 for 30 min at 37 °C. Cells in the absence of carrier were used as control. The cells were washed twice with Hank's buffer containing 100 µg mL^−1 heparin and then washed twice with Ham's F‐12 medium without phenol red. The nuclear staining was performed by incubating the cells with 10 µg mL^−1 Hoechst 33 342 (bis‐benzimide H33342 trihydrochloride) for 10 min at 37 °C. Cells were directly imaged as stated above.

[5] = CF assay, EYPC LUVs, 0.1 µM polyArg, pH 7.4, read-out: PolyArg EC 50
[6] = CF assay, EYPC LUVs, 0.1 µM polyArg, pH 7.4, ±2% error (SD)
[7] = EYPC LUVs, 0.1 µM polyArg, pH 7.4, f = 20.6, 10% error

Compound: Na3[Al^III(OH)6Mo^VI 6O18]·2H2O [[AlMo6]^3‒]
Hydrolysis/stability pH 7.5 [1]: Stable | EC50 [2, 5]: 11 µM | PolyArg Y max [2, 6]: 33% | PolyArg E (activation efficiency) [2, 7]: 3.1 | Carrier activity [2]: ‐ – ‐ ^k) | Transport activity (in words) [2]: incipient transport activity, but only for polyarginine as cargo

Compound: Cc1onc(-c2ccccc2)c1C(=O)N[C@@H]1C(=O)N2[C@@H]1SC(C)(C)[C@@H]2C(=O)O [oxacillin]
MIC ([3]; ref [8]): 256 µg/mL | MIC ([3]; ref [9]): 256 µg/mL

Compound: O=C(O)CCCc1ccc2ccc3cccc4ccc1c2c34 [PyBu^‒, pyrenebutyrate, reference compound]
FITC-Arg8 uptake promoted by carrier (CHO‐K1 cells): did not achieve efficient uptake | Hydrolysis/stability pH 7.5 [1]: Stable | Hydrolysis/stability pH 5.5 [1]: Stable | HeptaArg Y max ([2]; CF assay, EYPC LUVs, 13 µM lipid, 10 µM heptaArg, 10 mM Hepes or Tris, 107 mM NaCl, pH 7.4, 10 min, Hill fit, triplicates, ±2% error (SD)): 100% | EC50 [2, 5]: 12 µM | PolyArg Y max [2, 6]: 91% | EC50 ([2]; CF assay, EYPC LUVs, 1 µM protamine, pH 7.4, read-out: Protamine EC 50): 39 µM | Protamine Y max ([2]; CF assay, EYPC LUVs, 1 µM protamine, pH 7.4, ±2% error (SD)): 77% | EC50 ([2]; CF assay, EYPC LUVs, 10 µM heptaArg, pH 7.4, carrier concentration for 50% of Ymax, read-out: HeptaArg EC 50): 100 µM | PolyArg E (activation efficiency) [2, 7]: 8.5 | Protamine E (activation efficiency) ([2]; EYPC LUVs, 1 µM protamine, pH 7.4, f = 20.6, 10% error): 5.3 | HeptaArg E (activation efficiency) ([2]; EYPC LUVs, 10 µM heptaArg, pH 7.4, E = Ymax(pEC50/f), f = 20.6, 10% error): 4.8 | Efficacy when the sequence of addition was inverted ([2]; heptaarginine 10 µM, cargo before carrier (Figure S6)): significantly reduces its activity

Compound: 5(6)‐fluorescein isothiocyanate‐labelled octaarginine [FITC‐Arg8]
Uptake of FITC-Arg8 without carrier (CHO‐K1 cells; FITC-Arg8 5 µM): minor punctate fluorescence

More lines, main results first:

Stability at pH 7.5 by NMR (in words) [1]: [SiIVWVI11O39]8‒ is predominant
Compound: K4[α‐Si^IVW^VI 12O40]·14H2O [[SiW12]^4‒]
Vesicle lysis at higher concentrations [4]: led to vesicle lysis | Carrier activity [2]: ‐ – ‐ ^k) , ^m) | Cargo transport with POM solution kept at pH 1.2 ([2]; EYPC⊃CF liposomes at pH 7.4, POM solution preserved at pH 1.2 before addition): showed the desired cargo transport at acidic pH, without membrane disruption | Transport activity (in words) [2]: neither an interaction with the membrane nor cargo transport

Hydrolysis/stability pH 7.5 [1]: Stable | Stability at pH 7.5 by NMR (in words) [1]: integrity at pH 7.5
Compound: (C4H12N)4[α‐HAl^IIIGe^IVW^VI 11O39(H2O)]·11H2O [[AlGeW11]^5‒]
Carrier activity [2]: ‐ – ‐ ^k)

Hydrolysis/stability pH 7.5 [1]: Stable | Stability at pH 7.5 by NMR (in words) [1]: stable at pH 7.5
Compound: Na5[α‐Al^IIIW^VI 12O40]·12H2O [[AlW12]^5‒]
Carrier activity [2]: ‐ – ‐ ^k)

Hydrolysis/stability pH 7.5 [1]: Stable | Hydrolysis/stability pH 5.5 [1]: Stable
Compound: B12Br12 ^2‒ [reference compound]
FITC-Arg8 uptake promoted by carrier (CHO‐K1 cells): did not achieve efficient uptake

Reference: publication PMC11475408, “All‐Inorganic Polyoxometalates Act as Superchaotropic Membrane Carriers” (Advanced Materials (Deerfield Beach, Fla.), 2023)
